Data from article PMC7890096, “Binding of non-canonical peptidoglycan controls Vibrio cholerae broad spectrum racemase activity” (Computational and Structural Biotechnology Journal, 2021).

Tested on: BsrV
Assay: in vitro BsrV racemase assay (L-Ala substrate) with muropeptides, Marfey's/HPLC
Format: biochemical, Vibrio cholerae
Details: 4 mM L-Ala, 5 min at 37 °C, Bicarbonate buffer 50 mM pH 9, Fig. 3A; for inhibition of BsrV D-Ala production, in words: D-cycloserine 0.1 mM, tripeptide and D-Ala-D-Ala at equal concentration (amino acid, tripeptide/dipeptide), p dipeptide vs tripeptide = 0.0181, tripeptide vs M4 = 0.0027, M3R vs D-cycloserine < 0.0001
Protocol: For activity assays, in vitro LAA and DAAS were characterized with Marfey’s (FDAA)-derivatization in HPLC and DAAO assay (D-amino acid oxidase) performed as described. The product from a racemization reaction was derivatized with L-FDAA (1-fluoro-2-4-dinitrophenyl-5-L-alanine amide, Marfey’s reagent, Thermo Scientific). First, an equal volume of NaHCO3 0.5 M was added to the racemization reaction; then, 6 µL of this reaction was reacted with FDAA (10 mg/mL in acetone) at 80 °C for 3 min. The reaction was stopped with HCl 2 N and the samples were filtered. The products were separated with a linear gradient of triethylamine phosphate/acetonitrile in HPLC with an Aeris peptide column (250 × 4.6 mm; 3.6 μm particle size) (Phenomenex, USA) and detected at Abs.340 nm. To determine the inhibition effect of the sacculus in BsrV's activity, 35 µg of sacculi were incubated for 5 min at 37 °C with BsrV and 4 mM of L-Ala in Tris-HCl 50 mM pH 8. […] DAAO reaction was determined by coupling 10 µL of the extract into 150 µL of a reaction containing: sodium phosphate buffer 100 mM pH 7, Trigonopsis variabilis D-amino acid oxidase (DAAO) (Komarova et al., 2012) 3.6 U/ml, horseradish peroxidase 1 U/mL, o-phenylenediamine (OPD) 2 mg/mL and FAD 3 mg/ml. This two-step assay permits the quantification of H2O2 (DAAO is able to produce α-ketoacid, NH3 and H2O2 from DAA). Peroxidase reduces H2O2, […], leading to the production of 2,3–25 diaminophenazine. The reaction was incubated for 2 h at 37 °C and inactivated with HCl 3 M, giving a colorimetric product that can be measured at 492 nm. To determine the inhibition effect of muropeptides in BsrV's activity, 0.1 mM of M4 (GlcNAc-MurNAc-Ala-Glu-DAP (Diaminopimelate)-Ala), M3M (GlcNAc-MurNAc-Ala-Glu-DAP-Met), M3R (GlcNAc-MurNAc-Ala-Glu-DAP-Arg) and D-cycloserine were incubated with BsrV and 4 mM of L-Ala for 5 min at 37 °C (1/40 relation) in Bicarbonate buffer 50 mM pH 9. In the case of tripeptide and D-Ala-D-Ala, equal concentration (amino acid, tripeptide/dipeptide) was utilized.
Fig. 3 Peptidoglycan inhibits BsrV’s activity. (A) Inhibitory effect of muropeptides on BsrV activity. In vitro BsrV racemase assays with L-Ala as substrate in the presence of (see schematics): M4 (disaccharide tetrapeptide), M3M and M3R; the asterisk represents D-Met and D-Arg substitutions in the fourth position. […] P values: [dipeptide vs tripeptide] = 0.0181; [tripeptidevsM4] = 0.0027; [M4vsM3M] = 0.0003; [M4vsM3R] < 0.0003; [M3MvsM3R] = 0.2552; [M3RvsD-cycloserine] < 0.0001. (B) Inhibitory effect of peptidoglycan sacculi on BsrV activity. In vitro BsrV racemase assays with L-Ala as substrate in the presence of undigested sacculi (see schematics). Sugar rings are represented by hexagons and peptides are depicted. […]

Compound | inhibition of BsrV D-Ala production, in words | reduction in D-Ala production (% of inhibition) (0.1 mM muropeptide, Marfey's derivatization, HPLC 340 nm, vs control reaction with no inhibitor, single time point, p M4 vs M3M = 0.0003, M4 vs M3R < 0.0003, M3M vs M3R = 0.2552)
N[C@@H]1CON=C1O [D-cycloserine] | inhibit the least | 
CC(=O)N[C@H]1[C@H](O[C@H]2[C@H](O[C@H](C)C(=O)N[C@@H](C)C(=O)N[C@H](CCC(=O)N[C@@H](CCC[C@@H](N)C(=O)O)C(=O)N[C@H](C)C(=O)O)C(=O)O)[C@@H](NC(C)=O)C(O)O[C@@H]2CO)O[C@H](CO)[C@@H](O)[C@@H]1O (stereo partly drawn) [M4, GlcNAc-MurNAc-Ala-Glu-DAP-Ala] |  | ~ 20%
D-Ala-D-Ala [dipeptide] | inhibit the least | 
L-Ala-D-Glu-D-Lys [tripeptide] | inhibit the least | 
